The record followed here is patent publication US20210261495A1, “COMPOSITIONS AND METHODS OF USING ITACONIC ACID DERIVATIVES” (ERGON PHARMACEUTICALS, LLC, priority 2018, published 2021).

The test system of assay [1] is hCD8^+ T cells. As to the kind of experiment: hCD8+ T cell differentiation into effector T cells: GZMB release, ELISA. In kind it is cell-based, human. Particulars: for Granzyme B (% Control): 72 hrs, normalized per number of cells. On the procedure: (§1) Differentiation of T Cells. The ability of T cells to differentiate from a naïve to an effector state was assessed by measuring the levels of IFNγ or GZMB synthesis following activation of the cells using a cocktail of anti-CD2/anti-CD3/anti-CD28 antibodies. Expression of IFNγ, GZMB, and other effector cytokines was measured by determining their concentration in the conditioned media 24-72 hrs after initiation of activation or by estimating the % cells expressing these cytokines using fluorescence-activated cell sorting (FACS).
(§2) Augmentation of hCD8^+ T Cell Differentiation into Effector T Cells. Naïve CD8+ T cells were isolated from human buffy coats using magnetic separation and the appropriate kit from Miltenyi Biotec. Cells were then activated using a cocktail of anti-CD2/anti-CD3/anti-CD28 antibodies. Differentiation of the cells into effector T cells was assessed by determining the levels of IFNγ and GZMB released into the media at 24 and 72 hrs, respectively using appropriate ELISA kits. Cytokine concentrations were normalized per number of cells present and expressed as % Untreated Control.

Assay [2] concerns hCD8^+ T cells. Nature of the assay: hCD8+ T cell differentiation into effector T cells: IFNγ release, ELISA. In kind it is cell-based, human. The note with it: for IFNγ (% Control): 24 hrs, normalized per number of cells. The procedure:
as §1, §2

The test system of assay [3] is CT26 mouse colorectal tumors. Nature of the assay: Survival and tumor growth of CT26 tumor-bearing mice. It is filed as in vivo, C57BL/6 mice. The procedure: In Vivo Anti-Tumor Effect. The anticancer properties of the therapeutic agent were evaluated in vivo by determining the ability of the agent to suppress tumor growth and/or increase survival of tumor-bearing animals. In a typical experiment, 0.1-1×10^6 tumor cells, suspended in PBS containing 20% Matrigel, were injected subcutaneously in the right flank of each mouse. When the tumors became palpable, the animals were randomized into different groups and treatment began. In vivo tests routinely included a vehicle control group and different doses and/or routes of administration of the therapeutic agent. Tumor growth was assessed using calipers and the following formula:
Tumor Volume=length×width×width×½
The Kaplan-Meier analysis was used to estimate the survival probability of the tumor-bearing animals.
C57BL/6 mice were injected subcutaneously in the right flank with 1×10^5 CT26 mouse colorectal tumor cells, suspended in PBS containing 20% Matrigel. The tumors were allowed to grow to −100 mm^3. The mice were randomized into two groups (n=6 animals/group): one group received vehicle control and the other group was treated with i.p. injections of 0.2 mg/kg Compound (6) twice a week (Tuesday-Thursday). The experiment continued for 27 days, at which point the mortality rate of control animals was 80%. […] The experiment was repeated (FIG. 6B). In FIG. 6B, treated animals received oral administrations of 3 mg/kg Compound (6) twice a day.

The next assay concerns M-MDSCs. Nature of the assay: Tumor immunophenotyping of CT26 tumors (MDSCs). It is filed as in vivo, mice. The note with it: 0.2 mg/kg ip, CT26 tumors 250-1500 mm^3. On the procedure: Tumor Immunophenotyping. To determine the effect of a therapeutic agent on a specific immune cell type in vivo, syngeneic tumor models were employed. In a typical experiment, tumors were allowed to grow to a certain size and were then treated for a specific number of days prior to termination. At the end of the experiment, animals were euthanized, tumors were excised and single cell suspensions were immediately obtained through dissociation of tumor tissues with collagenase. Tumor cell suspensions were then subject to FACS analysis in order to determine the presence of various biomarkers.
Tumor Immunophenotyping of CT26 Tumors. CT26-tumor bearing mice treated with either vehicle control or 0.2 mg/kg Compound (6) (ip, twice a day) were euthanized when the tumors had reached a size of 250-1500 mm^3. Tumors were excised and single cell suspensions were obtained using the tumor dissociation kit from Miltenyi Biotec per manufacturer's instructions. The suspensions were analyzed for the presence of MDSCs.

Where [4] appears, read: 3 mg/kg oral twice a day, end of experiment.

`O=C(O)/C(=C\c1ccc(F)cc1)C(Cc1ccccc1)C(=O)O` (stereo not shown) [Compound (6), 2-benzyl-3-[(4-flurophenyl)methylidene]butanedioic acid]: the “Granzyme B (% Control)” value in the assay with hCD8^+ T cells [1] (0.1 nM) is on record as 117 % Control; with hCD8^+ T cells [1] (1 nM), 165 % Control; in the assay with hCD8^+ T cells [1] (10 nM), 504 % Control; in the assay on hCD8^+ T cells [1] (100 nM), 276 % Control; in the assay on hCD8^+ T cells [1] (10 μM) it was 360 % Control. For the same compound, the “production of GZMB” value in the assay with hCD8^+ T cells [1] (low concentrations) was “increase production”. In addition, the “IFNγ (% Control)” value in the assay on hCD8^+ T cells [2] (1 nM) stood at 129 % Control; in the assay on hCD8^+ T cells [2] (10 nM) it was 510 % Control; with hCD8^+ T cells [2] (100 nM), 274 % Control; in the assay with hCD8^+ T cells [2] (10 μM) it was 370 % Control; with hCD8^+ T cells [2] (100 μM), 198 % Control; in the assay on hCD8^+ T cells [2] (500 μM), 47 % Control. For the same compound, in the assay with hCD8^+ T cells [2] (high (>100 μM) concentrations), the “IFNγ synthesis following TCR activation” value is “decrease”. For the same compound, the “synthesis of INFγ following TCR activation” value with hCD8^+ T cells [2] (low concentrations, 0.1 nM to 100 μM) was “increased synthesis”. Moreover, the “survival (Kaplan-Meier)” value is reported as “survival advantage” in assay [3] (0.2 mg/kg i.p. twice a week, 27 days, vs vehicle control) and “increased survival” in assay [3] (3 mg/kg orally twice a day). The “animals with complete tumor regression” value in assay [3] (setting [4]) is recorded as 1/6. Also, the “mice with slower tumor growth” value in assay [3] (setting [4]) is listed as 5/6. For the same compound, the “intratumoral frequency of M-MDSCs” value in the assay on M-MDSCs is “significantly reduces”.
